{"source": "PubChem BioAssay AID2060891", "about": "(Molecular Pharmacology Branch, DTP, NCI, 2025);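 note: spheroids exposed to agents for seven days before the viability readout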;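 for viability, T/C: luminescence used as a proxy for viable cell amount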", "test_system": "K98450-129-R-PDC complex spheroid growth, percent test/control", "experiment": "Anticancer human tumor K98450-129-R-PDC patient-derived colon adenocarcinoma cell line growth inhibition [RAS]", "settings": "for IC50: curve of first compound; for viability, T/C: stronger effect = lower value", "from_the_text": "RAS pathway inhibitors in Combinations in Complex Spheroids\nA high-throughput screen of multi-cell type tumor spheroids was designed to identify active combinations of RAS pathway inhibitors and targeted small molecules. Complex spheroids include a stromal component modeled by human endothelial cells (HUVEC) and fibroblasts modeled by human mesenchymal stem cells (MSCs). The concentration ranges selected for each drug and investigational agent were based upon clinically achievable concentrations if the clinical Cmax of the agent was known.\nCompounds. The drugs and investigational agents: abemaciclib (NSC768073), cobimetinib (NSC768068), divarasib (GDC6063, NSC841802), docetaxel (NSC628503), GDC-1971 (RLY-1971, NSC841576), gemcitabine (NSC613327), inavolisib (NSC800729), ipatasertib (NSC767898), KB-0742 (NSC834161), MRTX-1133 (NSC836407), osimertinib (NSC779217), RMC-4630 (NSC839698), RMC-6236 (NSC851965), RMC-6291 (NSC852671), Ro-3306 (NSC812927), sapanisertib (NSC764658), SN-38 (NSC673596), staurosporine (NSC755774), SY5609 (NSC837396), and tovorafenib (DAY101, NSC766906), were obtained from the National Cancer Institute (NCI) Developmental Therapeutics Program Chemical Repository. The FDA-approved anticancer drug set is available from the NCI Developmental Therapeutics Program. […] The stock solutions were prepared in dimethyl sulfoxide (DMSO, Sigma-Aldrich, St. Louis, MO, cat. D2650) at 800-fold the tested concentration and stored at -70 degrees C prior to their use. All drugs and investigational agents were tested over a range starting from a high concentration at or near the clinical Cmax and decreasing in half-log increments. If the clinical Cmax for an agent had not been determined, the highest concentration tested was 10 microM.\nCell Culture. All cells were maintained in an incubator at 37 degrees C and 5% CO2 with 95% humidity. The PDC lines were cultured according to standard operating procedures established by the NCI PDMR. All PDCs were thawed and cultured in Matrigel-coated flasks prepared with a working solution of 1X Ham's F-12 nutrient mix, without supplementation (Invitrogen, Waltham, MA, cat. 11765054), 100 U/mL penicillin-streptomycin (Invitrogen, cat. 15140122), and 2.5% Matrigel (Corning Inc., Corning, NY, cat. 354248) for the first three passages. The 362531-283-R-J2-PDC and 782815-120-R-J1-PDC lines were cultured in 6C/Colon 1B media, which includes advanced DMEM/F-12 (Thermo Fisher Scientific, cat. 12634028), 10 mM HEPES (Thermo Fisher Scientific, cat. 15630080), 1X GlutaMAX supplement (Thermo Fisher Scientific, cat. 35050061), 0.1 mg/mL primocin (InvivoGen, San Diego, CA, cat. ant-pm-2), 10% defined fetal bovine serum, heat inactivated (HyClone Laboratories Inc., Logan, UT, cat. SH30070.03HI), 50% L-WRN conditioned media (ATCC, cat. CRL-3276), 1.25 mM N-Acetyl-L-cysteine (Sigma-Aldrich, cat. A9165), 10 mM nicotinamide (Sigma-Aldrich, cat. N0636), 1X B-27 supplement (Thermo Fisher Scientific, cat. 17504044), 1X N-2 supplement (Thermo Fisher Scientific, cat. 17502048), 50 ng/mL human EGF (Thermo Fisher Scientific, cat. PHG0311), and 10 microM Y-27632 dihydrochloride (Tocris Bioscience, cat. 1254). The K12877-001-R-J1-PDC line was cultured in 6I media, which includes all 6C/Colon 1B media plus 10 ng/mL human FGF-10 (PeproTech, cat. 100-26), 1 ng/mL human FGF-2 (PeproTech, cat. 100-18B), 1 µM prostaglandin E2 (Tocris Bioscience, cat. 2296), […] hydrocortisone (Sigma-Aldrich, cat. H4001), and […] bovine insulin (Sigma-Aldrich, cat. I6634). The K86415-001-R-J1-PDC line was cultured in 6D media, which includes all 6C/Colon 1B media components minus the L-WRN conditioned media. The 485176-168-R4-J1-PDC was cultured in PANC media, which includes all 6C/Colon 1B media plus 100 ng/mL human FGF-10 (PeproTech, cat. 100-26), 500 nM SB-431542 (Selleckchem, cat. S1067), and 10 nM gastrin (Tocris Bioscience, cat. 3006). […]"}
{"smiles": "C[C@@H](NC(=O)c1ncnc(N)c1Cl)c1ncc(C(=O)Nc2cc(C(F)(F)F)c(Cl)cn2)s1", "note": "+ C#Cc1c(F)ccc2cc(O)cc(-c3ncc4c(N5CC6CCC(C5)N6)nc(OCC56CCCN5CC(F)C6)nc4c3F)c12", "values": [{"measurement": "IC50", "setting": "second compound 0.0316 µM", "result": "> 10", "unit": "µM"}, {"measurement": "IC50", "setting": "second compound 0.1 µM", "result": "> 10", "unit": "µM"}, {"measurement": "IC50", "setting": "second compound 0.316 µM", "result": "> 10", "unit": "µM"}, {"measurement": "IC50", "setting": "second compound 1 µM", "result": "> 10", "unit": "µM"}, {"measurement": "IC50", "setting": "second compound 3.16 µM", "result": "> 10", "unit": "µM"}, {"measurement": "IC50", "setting": "second compound 10 µM", "result": "> 10", "unit": "µM"}, {"measurement": "viability, T/C", "setting": "second compound 0.0316 µM, first compound 0.0316 µM", "result": 114, "unit": "%"}, {"measurement": "viability, T/C", "setting": "second compound 0.0316 µM, first compound 0.1 µM", "result": 117, "unit": "%"}, {"measurement": "viability, T/C", "setting": "second compound 0.0316 µM, first compound 0.316 µM", "result": 118, "unit": "%"}, {"measurement": "viability, T/C", "setting": "second compound 0.0316 µM, first compound 1 µM", "result": 126, "unit": "%"}, {"measurement": "viability, T/C", "setting": "second compound 0.0316 µM, first compound 3.16 µM", "result": 129, "unit": "%"}, {"measurement": "viability, T/C", "setting": "second compound 0.0316 µM, first compound 10 µM", "result": 103, "unit": "%"}, {"measurement": "viability, T/C", "setting": "second compound 0.1 µM, first compound 0.0316 µM", "result": 115, "unit": "%"}, {"measurement": "viability, T/C", "setting": "second compound 0.1 µM, first compound 0.1 µM", "result": 126, "unit": "%"}, {"measurement": "viability, T/C", "setting": "second compound 0.1 µM, first compound 0.316 µM", "result": 130, "unit": "%"}, {"measurement": "viability, T/C", "setting": "second compound 0.1 µM, first compound 1 µM", "result": 127, "unit": "%"}, {"measurement": "viability, T/C", "setting": "second compound 0.1 µM, first compound 3.16 µM", "result": 128, "unit": "%"}, {"measurement": "viability, T/C", "setting": "second compound 0.1 µM, first compound 10 µM", "result": 106, "unit": "%"}, {"measurement": "viability, T/C", "setting": "second compound 0.316 µM, first compound 0.0316 µM", "result": 112, "unit": "%"}, {"measurement": "viability, T/C", "setting": "second compound 0.316 µM, first compound 0.1 µM", "result": 121, "unit": "%"}, {"measurement": "viability, T/C", "setting": "second compound 0.316 µM, first compound 0.316 µM", "result": 120, "unit": "%"}, {"measurement": "viability, T/C", "setting": "second compound 0.316 µM, first compound 1 µM", "result": 127, "unit": "%"}, {"measurement": "viability, T/C", "setting": "second compound 0.316 µM, first compound 3.16 µM", "result": 130, "unit": "%"}, {"measurement": "viability, T/C", "setting": "second compound 0.316 µM, first compound 10 µM", "result": 106, "unit": "%"}, {"measurement": "viability, T/C", "setting": "second compound 1 µM, first compound 0.0316 µM", "result": 114, "unit": "%"}, {"measurement": "viability, T/C", "setting": "second compound 1 µM, first compound 0.1 µM", "result": 115, "unit": "%"}, {"measurement": "viability, T/C", "setting": "second compound 1 µM, first compound 0.316 µM", "result": 122, "unit": "%"}, {"measurement": "viability, T/C", "setting": "second compound 1 µM, first compound 1 µM", "result": 112, "unit": "%"}, {"measurement": "viability, T/C", "setting": "second compound 1 µM, first compound 3.16 µM", "result": 126, "unit": "%"}, {"measurement": "viability, T/C", "setting": "second compound 1 µM, first compound 10 µM", "result": 102, "unit": "%"}, {"measurement": "viability, T/C", "setting": "second compound 3.16 µM, first compound 0.0316 µM", "result": 100, "unit": "%"}, {"measurement": "viability, T/C", "setting": "second compound 3.16 µM, first compound 0.1 µM", "result": 108, "unit": "%"}, {"measurement": "viability, T/C", "setting": "second compound 3.16 µM, first compound 0.316 µM", "result": 115, "unit": "%"}, {"measurement": "viability, T/C", "setting": "second compound 3.16 µM, first compound 1 µM", "result": 115, "unit": "%"}, {"measurement": "viability, T/C", "setting": "second compound 3.16 µM, first compound 3.16 µM", "result": 114, "unit": "%"}, {"measurement": "viability, T/C", "setting": "second compound 3.16 µM, first compound 10 µM", "result": 92.7, "unit": "%"}, {"measurement": "viability, T/C", "setting": "second compound 10 µM, first compound 0.0316 µM", "result": 95.8, "unit": "%"}, {"measurement": "viability, T/C", "setting": "second compound 10 µM, first compound 0.1 µM", "result": 108, "unit": "%"}, {"measurement": "viability, T/C", "setting": "second compound 10 µM, first compound 0.316 µM", "result": 114, "unit": "%"}, {"measurement": "viability, T/C", "setting": "second compound 10 µM, first compound 1 µM", "result": 100, "unit": "%"}, {"measurement": "viability, T/C", "setting": "second compound 10 µM, first compound 3.16 µM", "result": 111, "unit": "%"}, {"measurement": "viability, T/C", "setting": "second compound 10 µM, first compound 10 µM", "result": 86.2, "unit": "%"}]}
